“Also recorded” adds a separate entry of the source.
Key:
[1] = tested on: polymorphonuclear leukocyte infiltration (myeloperoxidase activity); assay: Myeloperoxidase (MPO) activity assay in hippocampus and neocortex after MCA-O and reperfusion; type: in vivo, mouse; settings: 1 h MCA-O, 48 h reperfusion
Protocol: Middle Cerebral Artery Occlusion (MCA-O) and reperfusion. Experimental protocols were reviewed and approved by the Institutional Animal Care and Use Committee of Louisiana State University Health Sciences Center, New Orleans. Mice (20-25 g body wt) were induced with 2% isoflurane in a mixture of 70% nitrous oxide and 30% oxygen. Anesthesia was maintained with 1% isoflurane. Temperature was maintained at 36.5-37.5° C. using a Harvard homeothermic blanket. P 10 polyethylene catheters were placed in the femoral artery and vein, and the blood pressure was monitored. Arterial blood was analyzed for PO2, PCO2, and pH after 1 h of ischemia and 30 min after the onset of reperfusion. The common carotid and external carotid arteries were temporarily ligated with a retracting suture, and the external carotid artery was dissected just proximal to its bifurcation. The occluding filament was introduced from the external carotid artery and advanced to the internal carotid artery. The AVM micro clip was removed. The filament was advanced so that the blunted tip lay in the anterior cerebral artery and the side of the filament occluded the origin of the middle cerebral artery (MCA). The stump of the external carotid artery was ligated, and tension on the retracting suture to the common carotid artery was gently released, restoring blood flow to the carotid system.
Occlusion of the middle cerebral artery (MCA-O) was maintained for 1 h; reperfusion was then established by delicate retrieval of the occluding suture from the arterial lumen, restoring blood flow to the region of the MCA. The mice were then killed, and the hippocampus and brain cortex rapidly dissected and frozen. Samples were kept at −80° C. until analysis. In some experiments, aspirin (7.5 mg/kg) was administered by gavage 15 min before MCA-O.
Polymorphonuclear leukocyte infiltration measurement by the myeloperoxidase (MPO) assay. Inhibition of leukocyte infiltration by 10,17S-docosatriene (NPD1) or docosahexaenoic acid (DHA) was measured in mouse hippocampus and neocortex after 1 h of middle cerebral artery occlusion (MCA-O) and 48 h of reperfusion. Lipids were delivered for each experiment by perfusion (250 nl/h) through Alzet minipumps implanted into the third ventricle. Hippocampus and neocortex from the ipsilateral (MCA-O-reperfusion) and contralateral sides were rapidly dissected. Brain samples were assayed for myeloperoxidase activity as described in Huang, J., Choudhri, T. F., Winfree, C. J., McTaggart, R. A., Kiss, S., Mocco, J., Kim, L. J., Protopsaltis, T. S., Zhang, Y., Pinsky, D. J., and Connolly Jr., E. S. (2000) Stroke 31, 3047-3053. Briefly, brain tissues were homogenized in 10 mM phosphate buffer (pH 7.4), then frozen and thawed with liquid N2 followed by sonication. Samples were precipitated at 10,000×g for 10 min, then aliquots of supernatants were added to 10 mM phosphate buffer (pH 6.0) and a substrate solution containing o-dianisidine (Sigma; St. Louis, Mo.) and 0.025% hydrogen peroxide, and finally incubated at 37° C. for 45 min. Spectrophotometric detection was obtained at 460 nm.

[2] = tested on: polymorphonuclear leukocyte infiltration; assay: Zymosan-induced peritonitis, leukocyte infiltration; type: in vivo, mouse; settings: zymosan-induced peritonitis, FVB mice; i.v. bolus 1.5 min before Zymosan A; lavage at 2 h
Protocol: The inhibition of leukocyte infiltration in zymosan-induced peritonitis by 4,17S-diHDHA and 10,17S-docosatriene (NPD1) was tested. […] Peritonitis was induced in 6- to 8-week-old male FVB mice (Charles River Laboratories) by peritoneal injection of 1 mg Zymosan A. The compounds 4,17S- and 10,17S-diHDHA were injected by intravenous bolus injection, 1.5 minutes before Zymosan A treatment. Two hours after induction of peritonitis, rapid peritoneal lavages were collected, and cell type enumeration was performed.

[3] = tested on: ARPE-19 cells; assay: Hoechst staining, TNFα/H2O2 oxidative stress-induced apoptosis; type: cell-based, human; settings: 50 nM added with TNFα 10 ng/ml plus H2O2 (400-800 μM); 14 h
Protocol: ARPE-19 cell culture and chemicals: ARPE-19 cells (L. M. Hjelmeland, ATCC # CRL-2302) were grown and maintained in DMEM-F12 medium supplemented with 10% FBS and incubated at 37° C. with a constant supply of 5% CO2. ARPE-19 cells are spontaneously transformed human retinal pigment epithelial cells that conserve cellular biological and functional properties. All chemicals were purchased from Sigma Chemical Co. (St. Louis, Mo.) unless otherwise indicated.
Hoechst staining: ARPE-19 cells were loaded with 2 μM Hoechst dissolved in a Locke's solution (Promega, Madison, Wis.) and incubated one h at 37° C. before imaging. Cells were then washed once with PBS and viewed using a Nikon DIAPHOT 200 microscope under UV fluorescence. Images were recorded by a Hamamatsu Color Chilled 3CCD camera and Photoshop 5.0 software, as described in Mukherjee, P. K., DeCoster, M. A., Campbell, F. Z., Davis, R. J. & Bazan, N. G. (1999) J. Biol. Chem. 274:6493-6498.
Several experimental conditions that result in reproducible oxidative-stress-induced apoptosis in ARPE-19 cells were tested. One condition chosen was the combination of TNFα with H2O2, both in relatively low concentrations. Typically 10 ng/ml of TNFα and 400-800 μM H2O2 led to marked increase in Hoechst-positive cells (Data not shown). Neither TNFα nor H2O2 alone triggered a significant effect under these conditions. (Data not shown).
Serum starvation made ARPE-19 cells more sensitive to oxidative stress-triggered apoptosis induced by TNFα/H2O2. Cells were grown in culture for 72 h in the presence of BSA (3.35 μM) with or without DHA (6.7 μM). Endogenous NPD1 formation was enhanced by BSA-DHA (FIG. 12A).
In the next experiment, confluent cells were starved for 8 h, then TNFα/H2O2 was added and incubated for 14 h before staining with Hoechst reagent. NPD1 (50 nM) was added at the time of adding TNFα/H2O2. […] When the TNFα concentration (10 ng/ml) was maintained and H2O2 concentration was decreased from 800 to 400 μM, fewer Hoechst-positive cells were seen. […] (Data not shown).

[4] = tested on: Bcl-xL gene expression; assay: HGU133 GeneChip DNA array in HN cells: Bcl-xL; type: cell-based, human; settings: Aβ42 25 μM, DHA 50 nM or NPD1 50 nM, 18 h, nsc = no significant change
[5] = tested on: Bcl-2 gene expression; assay: HGU133 GeneChip DNA array in HN cells: Bcl-2; type: cell-based, human; settings: Aβ42 25 μM, DHA 50 nM or NPD1 50 nM, 18 h, nsc = no significant change
[6] = tested on: COX-2 expression; assay: COX-2 mRNA abundance in ipsilateral hippocampus after MCA-O; type: in vivo, mouse; settings: 1 h MCA-O, 2 h reperfusion, infused into third ventricle (NPD1 0.16 μg/ml)
Protocol: COX-2 RNA abundance in hippocampus and HN cells. Abundance of human-specific COX-1 and COX-2 RNA message was assayed using RT-PCR as described in Bazan, N. G., and Lukiw, W. J. (2002) J. Biol. Chem. 277, 30359-30367.
To determine COX-1 and COX-2 expression, mRNA abundance in the ipsilateral hippocampus was measured. […] A 3-fold increase of COX-2 was seen due to MCA-O reperfusion (FIG. 7C). The infusion of the precursor DHA as well as its product 10,17S-docosatriene (NPD1) inhibited COX-2 expression by 14% and 52%, respectively.

[7] = tested on: NF-κB-DNA binding activity; assay: EMSA of NF-κB in hippocampus after MCA-O; type: in vivo, mouse; settings: ipsilateral hippocampus; 1 h MCA-O, 2 h reperfusion; infused into third ventricle 3 h at 0.25 μl/h (NPD1 0.16 μg/ml)
Protocol: Electrophoretic mobility-shift assay (EMSA) of human AP1, HIF-1α, NF-κBp50/p65, and STAT-1α. Nuclear protein extracts (NPXTs) were prepared from one to three 3.5 cm-diameter wells of HN cells and quantitated. NPXTs (5 μg) derived from HN cells were incubated with[γ-^32P]-ATP (˜3000 Ci/mmol)-end-labeled AP1, HIF-1α, NF-κκBp50/p65, or STAT-1α consensus and mutant oligonucleotides in 5-μl volumes, reacted for 30 min on ice, analyzed on 5% or 10% acrylamide/90 mM Tris-borate pH 8.4, 1 mM EDTA (TBE) gels, dried onto 2-mm Whatman filter paper at 80° C. for 2 h, and phosphorimaged using a Typhoon Variable Mode Imager (Amersham Pharmacia Biotech, Piscataway, N.J. ).
FIGS. 7A, 7B, and 7C show mouse hippocampus after 1 h MCA-O was followed by 2 h reperfusion, where either vehicle, DHA, or 10,17S-docosatriene (NPD1) (0.16 μg/ml) was infused into the third ventricle for 3 h at 0.25 μl/h. […] NF-κB was increased over two fold in the ipsilateral hippocampus after MCA-O, and the infusion of either DHA or 10,17S-docosatriene (NPD1) inhibited ischemia-reperfusion-induced NF-κB activation by 28% and 48%, respectively (FIG. 7A).

[8] = tested on: prostaglandin E2 (PGE2) formation; assay: ELISA of PGE2 in hippocampus during reperfusion after MCA-O; type: in vivo, mouse; settings: aspirin 7.52 mg/kg by gavage 15 min before MCA-O; C57BL/6 mice
Protocol: To confirm that the aspirin dose administered by gavage did reach the brain, the time course for prostaglandin E2, LTB4, and lipoxin A4 production was determined in the hippocampus in parallel assays. The time course of prostaglandin E2, leukotriene B4, and lipoxin A4 formation was followed in mouse hippocampus after 1-h middle cerebral artery occlusion (MCA-O), followed by reperfusion with (FIG. 2B) or without (FIG. 2A) aspirin treatment. Detection of the compounds was performed by sensitive and specific ELISA, in tandem, for prostaglandin E2 (PGE2), leukotriene B4 (LTB4), and lipoxins (LXA4) (Neogen, Lexington, Ky.). […] Maximal LTB4 was generated in aspirin-treated hippocampus by 8 h, as was the case with lipoxin A4, which also peaked within 8 h.

[9] = tested on: Aβ40 and Aβ42 peptide secretion; assay: Aβ40 and Aβ42 peptide secretion by aging HN cells (Western immunoblot of medium); type: cell-based, human; settings: aging HN cells cultured up to 8 weeks; DHA 50 nM or IL-1β 10 ng/ml continuously in medium
Protocol: Human Neural (HN) Cells. HN cells in primary culture, starting as primary spheroids (CC-2599, Clonetics, Walkersville, Md.), were grown in neural progenitor maintenance medium (NPMM) containing human epidermal and fibroblast growth factor, gentamicin/amphotericin (G/A1000), and neural survival factor-1 for up to 8 weeks. […] (Data not shown).
Additions of IL-1β and DHA to the Growth Medium. After 1 week of HN cell growth, IL-1β (10 ng/ml) or DHA (50 nM) was added to the NPMM culture medium.
To determine the effect of cytokine-mediated stress on aging HN cells, AP peptide release was assayed in the continuous presence in the culture medium of IL-1β, an inducer of reactive oxygen species (ROS) generation and oxidative stress as described in Lynch, A. M., Moore, M., Craig, S., Lonergan, P. E., Martin, D. S., Lynch, M. A. (2003) J. Biol. Chem., 278: 51075-51084; and Kaur, J., Dhaunsi, G. S., Turner, R. B. (2004) Med. Princ. Pract., 13: 26-29. Parallel experiments in aging HN cells were performed in the presence of control neuro-progenitor maintenance medium (NPMM) and the continuous presence of NPMM+DHA.

[10] = 1 μg or 3 μg over 48 h (dose of the value not stated)

Question: What does the source list for “10,17S-docosatriene methyl ester [10,17S-docosatriene (NPD1) methyl ester]”?
Answer: inhibition of ipsilateral myeloperoxidase activity, hippocampus [1, 10]: 49%; inhibition of ipsilateral myeloperoxidase activity, neocortex [1, 10]: 97%

Question: `CCC=CCC(O)C=CC=CCC=CCC=CC=CC(O)CCC(=O)O` (stereo not drawn) [4,17S-diHDHA] was tested. Which “inhibition of polymorphonuclear leukocyte infiltration” value [2] did it give?
Answer: dose-dependent inhibition; also recorded: some inhibition

Question: How did the “inhibition of oxidative stress (TNFα/H2O2)-induced Hoechst-positive cells / apoptosis” value [3] turn out when `O=C(O)CCC[C@H](O)\C=C/C=C/C=C/[C@H](O)C/C=C\CCCCCO` [20-OH-LTB4] was run?
Answer: neither PGE2, LTB4, nor 20-OH-LTB4 (each at 50 nM) was able to elicit the degree of inhibition

Question: How did the “inhibition of oxidative stress (TNFα/H2O2)-induced Hoechst-positive cells / apoptosis” value [3] turn out when `CCCCC/C=C\C/C=C\C/C=C\C/C=C\CCCC(=O)O` [Arachidonic acid, arachidonic acid] was run?
Answer: partially effective

Question: For `CC/C=C\C/C=C\C/C=C\C/C=C\C/C=C\C/C=C\CCC(=O)O` [DHA, docosahexaenoic acid], which “Bcl-xL gene expression, fold change over untreated controls” value [4] is on record?
Answer: +1.5 fold

Question: What about the “Bcl-2 gene expression, fold change over untreated controls” value [5] of the same compound?
Answer: +2.5 fold

Question: What about the “inhibition of COX-2 expression (mRNA)” value [6] of the same compound?
Answer: 14%

Question: And the “inhibition of myeloperoxidase activity, hippocampus” value ([1]; 2 μg over 48 h perfusion)?
Answer: 60%

Question: And the “inhibition of myeloperoxidase activity, neocortex” value ([1]; 2 μg over 48 h perfusion)?
Answer: no inhibition

Question: What about the “inhibition of myeloperoxidase activity, hippocampus” value ([1]; 20 μg over 48 h perfusion) of the same compound?
Answer: 72%

Question: And the “inhibition of myeloperoxidase activity, neocortex” value ([1]; 20 μg over 48 h perfusion)?
Answer: 40%

Question: What about the “inhibition of myeloperoxidase activity, hippocampus” value ([1]; 200 μg over 48 h perfusion) of the same compound?
Answer: 82%

Question: And the “inhibition of myeloperoxidase activity, neocortex” value ([1]; 200 μg over 48 h perfusion)?
Answer: 73%

Question: And the “inhibition of ischemia-reperfusion-induced NF-κB activation” value [7]?
Answer: 28%

Question: How did the “inhibition of oxidative stress (TNFα/H2O2)-induced Hoechst-positive cells / apoptosis” value [3] turn out when `CCCCC/C=C\C[C@@H](O)/C=C/C=C/C=C\[C@@H](O)CCCC(=O)O` [LTB4, leukotriene B4] was run?
Answer: partially inhibitory

Question: `CCCCC[C@H](O)/C=C/[C@H]1[C@H](O)CC(=O)[C@@H]1C/C=C\CCCC(=O)O` [PGE2, prostaglandin E2] was tested. Which “inhibition of oxidative stress (TNFα/H2O2)-induced Hoechst-positive cells / apoptosis” value [3] did it give?
Answer: neither PGE2, LTB4, nor 20-OH-LTB4 (each at 50 nM) was able to elicit the degree of inhibition

Question: Which “effect on accumulation of PGE2 in hippocampus within 8 h of reperfusion” value [8] does the source give for `CC(=O)Oc1ccccc1C(=O)O` [aspirin] here?
Answer: inhibited

Question: “IL-1β: human recombinant interleukin 1-beta, cytokine stressor” was tested. Which “effect on Aβ peptide (Aβ40 and Aβ42) secretion” value [9] did it give?
Answer: enhanced

Reference: US20050075398A1, “Neuroprotectin D1 protects against cellular apoptosis, stroke damage, alzheimer's disease and retinal diseases” (priority 2003, published 2005)
